Common to all, as to assay type: cell-based
One assay deals with T1, human P2X2/3 receptors (Homo sapiens, UniProt P56373+Q9UBL9).
T1 construct: expressed in transfected cells; host or cells: human astrocytoma 1321N1 (1312N1 [sic])
T1 sequence (P56373 1-397): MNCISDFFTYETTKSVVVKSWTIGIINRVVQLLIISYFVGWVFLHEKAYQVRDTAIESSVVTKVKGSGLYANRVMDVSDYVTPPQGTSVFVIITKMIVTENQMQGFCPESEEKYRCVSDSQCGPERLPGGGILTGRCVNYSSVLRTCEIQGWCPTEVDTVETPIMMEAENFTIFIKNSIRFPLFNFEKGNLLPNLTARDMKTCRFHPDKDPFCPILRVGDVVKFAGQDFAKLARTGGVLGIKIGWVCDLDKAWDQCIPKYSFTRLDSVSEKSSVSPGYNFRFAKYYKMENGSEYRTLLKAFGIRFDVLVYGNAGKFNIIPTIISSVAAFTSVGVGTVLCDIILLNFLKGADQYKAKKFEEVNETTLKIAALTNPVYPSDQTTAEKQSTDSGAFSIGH
T1 sequence (Q9UBL9 1-471): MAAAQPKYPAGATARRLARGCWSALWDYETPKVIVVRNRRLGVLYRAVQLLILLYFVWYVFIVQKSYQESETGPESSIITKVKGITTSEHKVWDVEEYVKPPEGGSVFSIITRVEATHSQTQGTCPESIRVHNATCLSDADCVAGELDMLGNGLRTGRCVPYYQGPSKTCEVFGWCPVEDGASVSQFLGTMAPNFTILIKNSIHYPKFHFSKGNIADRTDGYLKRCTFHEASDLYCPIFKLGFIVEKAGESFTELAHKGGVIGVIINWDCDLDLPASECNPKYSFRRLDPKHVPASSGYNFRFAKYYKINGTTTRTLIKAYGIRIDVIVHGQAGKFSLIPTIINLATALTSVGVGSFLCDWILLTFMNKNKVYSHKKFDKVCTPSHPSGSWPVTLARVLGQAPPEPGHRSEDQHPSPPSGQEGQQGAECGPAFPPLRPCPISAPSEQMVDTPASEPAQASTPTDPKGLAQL
Nature of the assay: Intracellular calcium measurement, antagonist activity at human P2X2/3 receptors (hP2X23 1321N1), Fluo8. To be noted: for IC50: column 4); 1321N1 cells, human P2X2/3, Fluo8, agonist ATP at EC50; read-out: 4) hP2X2/3 IC50 [nM] (1321N1); for hP2X23/hP2X3* Selectivity (1321N1): ratio of column 4) hP2X2/3 to column 3) hP2X3, 1321N1. The method in brief: (§1)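 Inhibition of ATP-triggered Ca2+ transients is measured in 1321N1 cells expressing P2X3 homotrimers or P2X2/3 heterotrimers.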
In general terms: A change in cytosolic calcium serves as a functional read-out for many receptors and channels.

In assay [1] the target is T2, human P2X3 receptor (Homo sapiens, UniProt P56373).
T2 sequence (P56373 1-397): T1 sequence (P56373 1-397)
Nature of the assay: Intracellular calcium measurement to assess antagonist activity at human P2X3 receptors (hP2X3 CHO), photina luminescence. Set-up: expressed in transfected cells; host or cells: Chinese hamster ovary (CHO) cells. The settings on record: column 2), CHO cells, agonist α,β-methylene-ATP at EC50. Put shortly:
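CHO cells stably expressing human P2X3 and mitochondrial photina, plated the day before at 30 °C, then loaded 3 h at 37 °C in 2 mM Ca-tyrode buffer with 5 μg/ml coelenterazine. Agonist-evoked calcium luminescence read immediately; inhibition seen as signal decrease.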

The target of assay [2] is T2, human P2X3 receptor. Nature of the assay: Intracellular calcium measurement, antagonist activity at human P2X3 receptors (hP2X3 1321N1), Fluo8. More on the design: expressed in transfected cells; host or cells: human astrocytoma 1321N1 (1312N1 [sic]). The settings on record: column 3); 1321N1 cells, human P2X3, Fluo8, agonist ATP at EC50. Put shortly:
as §1

SMILES strings stand for the structures.

With `CC(C)N1Cc2c(n(CC(=O)Nc3ccc(F)cn3)c3cc(C(=O)N(C)C)nn3c2=O)C1=O` [Example 182, 4-{2-[(5-fluoropyridin-2-yl)amino]-2-oxoethyl}-N,N-dimethyl-5,8-dioxo-6-(propan-2-yl)-5,6,7,8-tetrahydro-4H-pyrazolo[1,5-a]pyrrolo[3,4-d]pyrimidine-2-carboxamide], the IC50 is above 32000 nM at human P2X2/3 receptors, 109 nM on human P2X3 receptor [1] and 165 nM at human P2X3 receptor [2]. For the same compound, the “hP2X23/hP2X3* Selectivity (1321N1)” value at human P2X2/3 receptors is given as above 194.

As for `CC(C)N1Cc2c(n(CC(=O)Nc3ccc(F)cn3)c3cc(C(=O)N4CCCCC4)nn3c2=O)C1=O` [Example 183], the IC50 on human P2X2/3 receptors is 2300 nM; at human P2X3 receptor [1], 23 nM; on human P2X3 receptor [2] it was 20 nM. Besides, the “hP2X23/hP2X3* Selectivity (1321N1)” value on human P2X2/3 receptors is 118.

For the compound `CC(C)N1Cc2c(n(CC(=O)Nc3ccc(F)cn3)c3cc(C(=O)NCC(F)F)nn3c2=O)C1=O` [Example 184], the values for the IC50 at human P2X2/3 receptors, at human P2X3 receptor [1] and on human P2X3 receptor [2] were 3200 nM, 38 nM and 46 nM, respectively. For the same compound, the “hP2X23/hP2X3* Selectivity (1321N1)” value on human P2X2/3 receptors was 70.

On to `CC(C)N1Cc2c(n(CC(=O)Nc3ccc(F)cn3)c3cc(C(=O)NC4CCCC4)nn3c2=O)C1=O` [Example 185], for which the results for the IC50 at human P2X2/3 receptors, at human P2X3 receptor [1] and on human P2X3 receptor [2] were 3350 nM, 22 nM and 40 nM, respectively. Further, at human P2X2/3 receptors, the “hP2X23/hP2X3* Selectivity (1321N1)” value worked out at 84.

On to `CC(C)N1Cc2c(n(CC(=O)Nc3ccc(F)cn3)c3cc(C(=O)NC(C)(C)C)nn3c2=O)C1=O` [Example 186], for which the IC50 was above 32000 nM on human P2X2/3 receptors, 124 nM on human P2X3 receptor [1] and 1850 nM at human P2X3 receptor [2]. The “hP2X23/hP2X3* Selectivity (1321N1)” value on human P2X2/3 receptors was above 17.

Consider `CC(C)N1Cc2c(n(CC(=O)Nc3ccc(F)cn3)c3cc(C(=O)NCC4CC4)nn3c2=O)C1=O` [Example 187], for which the IC50 came out at 2300 nM at human P2X2/3 receptors, 21 nM at human P2X3 receptor [1] and 21 nM at human P2X3 receptor [2]. At human P2X2/3 receptors, the “hP2X23/hP2X3* Selectivity (1321N1)” value is recorded as 112.

As to `CC(C)N1Cc2c(n(CC(=O)Nc3ccc(F)cn3)c3cc(C(=O)N4CCN(C)CC4)nn3c2=O)C1=O` [Example 188], the IC50 is above 32000 nM on human P2X2/3 receptors, 91 nM on human P2X3 receptor [1] and 120 nM on human P2X3 receptor [2]. At human P2X2/3 receptors, the “hP2X23/hP2X3* Selectivity (1321N1)” value is given as above 267.

Consider `COC[C@H](C)N1Cc2c(n(CC(=O)Nc3ccc(F)cn3)c3cc(C(=O)N(C)C)nn3c2=O)C1=O` [Example 189], for which the IC50 on human P2X2/3 receptors was above 23500 nM; on human P2X3 receptor [1], 35 nM; on human P2X3 receptor [2] it was 81 nM. On human P2X2/3 receptors, the “hP2X23/hP2X3* Selectivity (1321N1)” value is given as above 291.

`COC[C@H](C)N1Cc2c(n(CC(=O)Nc3ccc(F)cn3)c3cc(C(=O)NCC4CC4)nn3c2=O)C1=O` [Example 190]: the IC50 is 5900 nM at human P2X2/3 receptors, 10 nM on human P2X3 receptor [1] and 16 nM at human P2X3 receptor [2]. Further, the “hP2X23/hP2X3* Selectivity (1321N1)” value on human P2X2/3 receptors was 361.

As to `COC[C@H](C)N1Cc2c(n(CC(=O)Nc3ccc(F)cn3)c3cc(C(=O)N4CCOCC4)nn3c2=O)C1=O` [Example 191], the IC50 is above 32000 nM on human P2X2/3 receptors, 29 nM on human P2X3 receptor [1] and 27 nM on human P2X3 receptor [2]. For the same compound, the “hP2X23/hP2X3* Selectivity (1321N1)” value at human P2X2/3 receptors is above 1199.

With `COC[C@H](C)N1Cc2c(n(CC(=O)Nc3ccc(F)cn3)c3cc(C(=O)NC4CC4)nn3c2=O)C1=O` [Example 192], the IC50 on human P2X2/3 receptors was above 19600 nM; on human P2X3 receptor [1], 56 nM; at human P2X3 receptor [2], 37 nM. In addition, the “hP2X23/hP2X3* Selectivity (1321N1)” value on human P2X2/3 receptors is reported as above 530.

In the case of `CNC(=O)c1cc2n(CC(=O)Nc3ccc(F)cn3)c3c(c(=O)n2n1)CN([C@@H](C)COC)C3=O` [Example 193], the figures for the IC50 on human P2X2/3 receptors, at human P2X3 receptor [1] and on human P2X3 receptor [2] were above 22500 nM, 155 nM and 125 nM, respectively. Also, the “hP2X23/hP2X3* Selectivity (1321N1)” value at human P2X2/3 receptors is listed as above 180.

As to `COC[C@H](C)N1Cc2c(n(CC(=O)Nc3ccc(F)cn3)c3cc(C(=O)N4CCC4)nn3c2=O)C1=O` [Example 194], the IC50 at human P2X2/3 receptors was 3200 nM; at human P2X3 receptor [1], 18 nM; at human P2X3 receptor [2], 9 nM. The “hP2X23/hP2X3* Selectivity (1321N1)” value at human P2X2/3 receptors is given as 368.
